From publication PMC12282258, “Understanding the substrate recognition and catalytic mechanism of 2-O-methyl fucosidases from glycoside hydrolase family 139” (The Journal of Biological Chemistry, 2025)

Molecular target: T1, BT0984^GH139 (Bacteroides thetaiotaomicron, UniProt Q8A933)
T1 construct: gene BT_0984; full-length gene in pET28a (NheI/XhoI), N-terminal His6 tag, expressed in E. coli BL21(DE3) or TUNER; cobalt IMAC purified
T1 sequence (Q8A933 1-803): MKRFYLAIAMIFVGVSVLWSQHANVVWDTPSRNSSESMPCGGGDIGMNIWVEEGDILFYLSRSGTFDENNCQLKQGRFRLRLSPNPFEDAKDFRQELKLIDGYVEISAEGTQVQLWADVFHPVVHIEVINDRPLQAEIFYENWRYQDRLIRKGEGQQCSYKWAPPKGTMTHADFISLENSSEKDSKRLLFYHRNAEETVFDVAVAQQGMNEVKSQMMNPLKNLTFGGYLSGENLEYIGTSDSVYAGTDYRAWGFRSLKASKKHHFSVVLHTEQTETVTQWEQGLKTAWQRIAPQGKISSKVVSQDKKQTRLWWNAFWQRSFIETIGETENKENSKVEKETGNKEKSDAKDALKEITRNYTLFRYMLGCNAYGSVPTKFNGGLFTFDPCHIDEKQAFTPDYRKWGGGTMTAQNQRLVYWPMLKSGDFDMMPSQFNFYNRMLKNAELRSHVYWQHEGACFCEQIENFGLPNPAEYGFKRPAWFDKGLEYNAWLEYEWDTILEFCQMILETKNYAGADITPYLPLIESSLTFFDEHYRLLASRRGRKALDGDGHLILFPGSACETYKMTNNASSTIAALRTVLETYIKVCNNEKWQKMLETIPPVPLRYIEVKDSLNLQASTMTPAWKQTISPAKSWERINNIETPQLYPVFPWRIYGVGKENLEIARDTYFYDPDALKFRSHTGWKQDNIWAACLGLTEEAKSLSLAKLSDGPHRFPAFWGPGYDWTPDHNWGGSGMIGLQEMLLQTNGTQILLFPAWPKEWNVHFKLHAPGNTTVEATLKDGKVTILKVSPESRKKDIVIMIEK
Experiment: thin layer chromatography
Type: biochemical
Conditions: 1 μM enzyme, 10 mM MOPS pH 7.0, 150 mM NaCl, 37 °C; slow

`CO[C@@H]1[C@H](Oc2ccc([N+](=O)[O-])cc2)O[C@@H](C)[C@@H](O)[C@H]1O` [4NP-MeFuc, 4-nitrophenyl-2-O-methyl-α-L-fucopyranoside] was tested, and the thin layer chromatography was “displayed activity on 4-nitrophenyl 2-O-methyl-α-L-fucoside (4NP-MeFuc)”.
